Experimental data: ChEMBL document CHEMBL1140165, “Rotationally constrained 2,4-diamino-5,6-disubstituted pyrimidines: a new class of histamine H4 receptor antagonists with improved druglikeness and in vivo efficacy in pain and inflammation models” (J Med Chem, 2008)
Active and inactive are the calls of the source. The calls are words filed in the database; no cut-off is given here.

Key:
[1] = Terminal volume of distribution in mouse at 5 mg/kg, iv; type: ADME, organism-based; design: dose 5 mg/kg, route intravenous; conditions: in vivo, read-out: Vbeta
[2] = Terminal volume of distribution in rat at 10 mg/kg, iv; type: ADME, organism-based; design: dose 10 mg/kg, route intravenous; conditions: in vivo, read-out: Vbeta
[3] = (§1) Blood clearance in mouse at 5 mg/kg, iv; type: ADME, organism-based; design: dose 5 mg/kg, route intravenous; conditions: whole blood
[4] = Selectivity ratio of Ki for human histamine H4 receptor to Ki for histamine H1 receptor
[5] = Selectivity ratio of Ki for human histamine H4 receptor to Ki for histamine H2 receptor
Cytochrome P450 2D6 = Cytochrome P450 2D6 (Homo sapiens, UniProt P10635); assay: Inhibition of CYP2D6 upto 10 uM; type: ADME
Cytochrome P450 2D6, sequence (P10635 whole entry): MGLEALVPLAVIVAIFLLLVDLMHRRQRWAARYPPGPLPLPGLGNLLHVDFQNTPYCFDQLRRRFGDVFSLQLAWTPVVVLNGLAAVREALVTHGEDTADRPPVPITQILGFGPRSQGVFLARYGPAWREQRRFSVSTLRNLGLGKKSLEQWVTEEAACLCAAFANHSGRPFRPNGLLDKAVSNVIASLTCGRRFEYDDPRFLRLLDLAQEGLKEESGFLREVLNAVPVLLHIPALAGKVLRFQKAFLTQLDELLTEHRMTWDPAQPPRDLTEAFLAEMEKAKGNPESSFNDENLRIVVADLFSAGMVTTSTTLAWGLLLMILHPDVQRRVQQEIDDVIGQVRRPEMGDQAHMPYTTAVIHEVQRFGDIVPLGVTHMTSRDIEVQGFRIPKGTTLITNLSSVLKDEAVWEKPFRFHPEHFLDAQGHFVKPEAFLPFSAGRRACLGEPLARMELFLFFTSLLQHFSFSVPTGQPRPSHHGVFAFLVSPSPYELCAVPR

[6] = Blood clearance in rat at 10 mg/kg, iv; type: ADME, organism-based; design: dose 10 mg/kg, route intravenous; conditions: whole blood
[7] = Fractional bioavailability in rat at 5 mg/kg, iv and 5 mg/kg, po; type: ADME, organism-based; conditions: in vivo
[8] = Half life in mouse at 5 mg/kg, iv; type: ADME, organism-based; design: dose 5 mg/kg, route intravenous; conditions: in vivo
[9] = Selectivity ratio of Ki for human histamine H4 receptor to Ki for dopamine D2 receptor
[10] = Protein binding in rat; type: ADME, organism-based; conditions: in vivo, read-out: PB (converted)
[11] = Selectivity ratio of Ki for human histamine H4 receptor to Ki for adrenergic alpha1 receptor
[12] = Fractional bioavailability in rat at 10 mg/kg, iv and 10 mg/kg, po; type: ADME, organism-based; conditions: in vivo
Histamine H4 receptor [13] = biological target: T1, Histamine H4 receptor (Rattus norvegicus, UniProt Q91ZY1); assay: Antagonist activity at rat histamine H4 receptor expressed in HEK293 cells assessed as inhibition of histamine-induced intracellular calcium elevation by FLIPR assay; type: functional, cell-based
T1 sequence (Q91ZY1 whole entry): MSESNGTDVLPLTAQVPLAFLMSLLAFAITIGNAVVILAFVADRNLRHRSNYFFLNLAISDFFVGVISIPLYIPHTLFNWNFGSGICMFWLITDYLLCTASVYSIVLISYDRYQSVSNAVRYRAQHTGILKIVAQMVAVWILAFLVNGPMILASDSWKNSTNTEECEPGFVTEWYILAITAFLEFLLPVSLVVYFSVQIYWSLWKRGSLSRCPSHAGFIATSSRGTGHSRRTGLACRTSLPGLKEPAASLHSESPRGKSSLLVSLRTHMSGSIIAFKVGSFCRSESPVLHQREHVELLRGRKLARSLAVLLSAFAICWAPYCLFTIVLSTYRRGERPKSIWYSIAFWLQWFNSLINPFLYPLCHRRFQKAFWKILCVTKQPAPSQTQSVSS

BMMC = assay: Blockade of histamine-induced morphological changes in BALB/c mouse BMMC by flow cytometry; type: functional, cell-based
Cytochrome P450 2C9 = Cytochrome P450 2C9 (Homo sapiens, UniProt P11712); assay: Inhibition of CYP2C9 upto 10 uM; type: ADME
Cytochrome P450 2C9, sequence (P11712 whole entry): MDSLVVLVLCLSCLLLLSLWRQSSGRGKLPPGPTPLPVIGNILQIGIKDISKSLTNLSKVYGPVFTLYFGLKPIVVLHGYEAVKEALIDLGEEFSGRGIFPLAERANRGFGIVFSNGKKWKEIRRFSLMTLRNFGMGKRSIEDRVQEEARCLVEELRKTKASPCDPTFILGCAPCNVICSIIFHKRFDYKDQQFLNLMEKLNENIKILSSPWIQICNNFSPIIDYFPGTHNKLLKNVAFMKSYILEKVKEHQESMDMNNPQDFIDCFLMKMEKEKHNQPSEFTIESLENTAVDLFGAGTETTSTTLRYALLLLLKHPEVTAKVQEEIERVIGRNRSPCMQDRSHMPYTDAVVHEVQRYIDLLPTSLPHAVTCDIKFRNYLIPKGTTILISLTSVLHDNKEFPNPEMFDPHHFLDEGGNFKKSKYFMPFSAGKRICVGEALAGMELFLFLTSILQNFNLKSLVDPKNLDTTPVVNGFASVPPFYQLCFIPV

[14] = Metabolic stability in mouse liver microsomes; type: ADME, Microsome
[15] = Protein binding in human; type: ADME, organism-based; conditions: in vivo, read-out: PB (converted)
Histamine H4 receptor [16] = biological target: T1, Histamine H4 receptor; assay: Displacement of [3H]histamine from rat histamine H4 receptor expressed in HEK293 cells; type: cell-based
Histamine H4 receptor [17] = biological target: T2, Histamine H4 receptor (Homo sapiens, UniProt Q9H3N8); assay: Displacement of [3H]histamine from human histamine H4 receptor expressed in HEK293 cells; type: cell-based; conditions: read-out: Ki
[18] = Selectivity ratio of Ki for human histamine H4 receptor to Ki for 5HT1D receptor
Cytochrome P450 3A4 = Cytochrome P450 3A4 (Homo sapiens, UniProt P08684); assay: Inhibition of CYP3A4 upto 10 uM; type: ADME
Cytochrome P450 3A4, sequence (P08684 whole entry): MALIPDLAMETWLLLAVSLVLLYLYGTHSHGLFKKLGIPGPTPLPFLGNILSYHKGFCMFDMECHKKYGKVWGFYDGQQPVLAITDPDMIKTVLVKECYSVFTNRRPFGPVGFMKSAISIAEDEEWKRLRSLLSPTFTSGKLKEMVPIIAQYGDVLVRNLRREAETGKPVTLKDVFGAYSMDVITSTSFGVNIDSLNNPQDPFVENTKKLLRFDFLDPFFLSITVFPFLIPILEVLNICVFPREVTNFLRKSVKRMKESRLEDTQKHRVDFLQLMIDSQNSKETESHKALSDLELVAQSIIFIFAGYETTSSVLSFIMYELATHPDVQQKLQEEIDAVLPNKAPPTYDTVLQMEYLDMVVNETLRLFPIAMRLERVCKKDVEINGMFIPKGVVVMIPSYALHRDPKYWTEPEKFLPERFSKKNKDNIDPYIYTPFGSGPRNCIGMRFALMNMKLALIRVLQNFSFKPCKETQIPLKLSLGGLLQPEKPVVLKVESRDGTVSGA

Mus musculus [19] = assay: Antiinflammatory activity against ip dosed BALB/c mouse assessed as inhibition of zymosan-induced peritonitis after 2 hrs pretreated 30 mins before zymosan challenge; type: functional
Liver microsomes [20] = assay: Metabolic stability in human liver microsomes; type: ADME, Microsome
Histamine H4 receptor [21] = biological target: T2, Histamine H4 receptor; conditions: HEK293
Mus musculus [22] = assay: Inhibition of clobenpropit-induced itching in ip dosed CD1/ICR mouse assessed as blockade of scratching in hind paw for 25 mins pretreated 30 mins before clobenpropit challenge; type: functional
[23] = Ratio of drug level in brain to plasma in rat at 10 mg/kg, iv after 30 mins; type: ADME, organism-based; design: dose 10 mg/kg, route intravenous
Homo sapiens = organism: Homo sapiens; assay: Selectivity ratio of Ki for human histamine H4 receptor to Ki for human histamine H3 receptor
[24] = Selectivity ratio of Ki for human histamine H4 receptor to Ki for 5HT1A receptor
Histamine H4 receptor [25] = biological target: T3, Histamine H4 receptor (Mus musculus, UniProt Q91ZY2); assay: Antagonist activity at mouse histamine H4 receptor expressed in HEK293 cells assessed as inhibition of histamine-induced intracellular calcium elevation by FLIPR assay; type: functional, cell-based
T3 sequence (Q91ZY2 whole entry): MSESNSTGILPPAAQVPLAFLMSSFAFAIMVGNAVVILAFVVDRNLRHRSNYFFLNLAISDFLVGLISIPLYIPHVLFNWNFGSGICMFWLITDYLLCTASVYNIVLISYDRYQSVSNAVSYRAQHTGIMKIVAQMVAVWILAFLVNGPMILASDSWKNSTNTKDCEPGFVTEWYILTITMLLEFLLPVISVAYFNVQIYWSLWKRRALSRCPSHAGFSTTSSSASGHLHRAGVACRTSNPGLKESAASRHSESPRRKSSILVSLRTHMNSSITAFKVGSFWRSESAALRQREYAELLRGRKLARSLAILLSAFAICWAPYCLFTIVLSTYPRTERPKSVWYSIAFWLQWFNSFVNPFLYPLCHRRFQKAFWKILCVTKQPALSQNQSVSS

[26] = Half life in rat at 10 mg/kg, iv; type: ADME, organism-based; design: dose 10 mg/kg, route intravenous; conditions: in vivo
[27] = Selectivity ratio of Ki for human histamine H4 receptor to Ki for 5HT2A receptor
Liver microsomes [28] = assay: Metabolic stability in rat liver microsomes; type: ADME, Microsome
Mus musculus [29] = assay: as §1; type: ADME, organism-based; design: dose 5 mg/kg, route intravenous; conditions: in vivo
[30] = biological target: Prostaglandin G/H synthase 1 (Homo sapiens) (UniProt P23219); assay: Binding affinity at COX1
Prostaglandin G/H synthase 1 (Homo sapiens), sequence (P23219 whole entry): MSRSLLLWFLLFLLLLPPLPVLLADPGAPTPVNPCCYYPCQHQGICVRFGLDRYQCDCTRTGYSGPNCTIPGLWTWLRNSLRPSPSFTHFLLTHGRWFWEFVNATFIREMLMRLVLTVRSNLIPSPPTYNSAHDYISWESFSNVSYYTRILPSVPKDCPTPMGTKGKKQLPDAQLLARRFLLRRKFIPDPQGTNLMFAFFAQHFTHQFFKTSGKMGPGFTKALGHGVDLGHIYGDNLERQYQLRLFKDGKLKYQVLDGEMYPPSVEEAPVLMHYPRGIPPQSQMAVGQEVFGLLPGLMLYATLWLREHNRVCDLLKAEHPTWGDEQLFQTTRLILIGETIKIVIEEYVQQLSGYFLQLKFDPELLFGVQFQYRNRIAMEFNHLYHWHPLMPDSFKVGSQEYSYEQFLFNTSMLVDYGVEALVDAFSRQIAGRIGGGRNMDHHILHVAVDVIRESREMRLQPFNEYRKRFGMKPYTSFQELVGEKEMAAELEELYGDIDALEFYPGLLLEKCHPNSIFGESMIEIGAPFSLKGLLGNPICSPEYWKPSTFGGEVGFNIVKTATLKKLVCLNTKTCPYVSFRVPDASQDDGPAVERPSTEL

[31] = biological target: T4, Prostaglandin G/H synthase 2 (Homo sapiens) (UniProt P35354); assay: Binding affinity at COX2
T4 sequence (whole entry): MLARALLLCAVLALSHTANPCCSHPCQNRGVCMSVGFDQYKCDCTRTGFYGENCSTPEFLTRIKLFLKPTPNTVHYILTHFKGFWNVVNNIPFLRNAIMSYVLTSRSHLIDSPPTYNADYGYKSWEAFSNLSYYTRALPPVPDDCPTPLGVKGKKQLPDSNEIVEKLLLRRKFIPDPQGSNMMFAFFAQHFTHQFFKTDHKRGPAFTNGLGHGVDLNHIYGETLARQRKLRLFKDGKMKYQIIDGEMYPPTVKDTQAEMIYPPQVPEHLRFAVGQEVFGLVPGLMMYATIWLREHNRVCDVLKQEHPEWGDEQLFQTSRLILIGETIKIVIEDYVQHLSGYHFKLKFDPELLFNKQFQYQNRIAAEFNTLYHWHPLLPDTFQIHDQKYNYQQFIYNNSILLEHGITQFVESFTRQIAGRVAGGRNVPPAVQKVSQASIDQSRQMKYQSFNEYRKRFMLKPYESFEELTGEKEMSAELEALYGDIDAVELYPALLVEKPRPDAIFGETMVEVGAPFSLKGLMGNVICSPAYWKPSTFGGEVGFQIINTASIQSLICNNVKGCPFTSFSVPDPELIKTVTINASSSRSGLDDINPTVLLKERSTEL

[32] = biological target: Cannabinoid receptor 2 (Homo sapiens) (UniProt P34972); assay: Binding affinity to CB2 receptor
Cannabinoid receptor 2 (Homo sapiens), sequence (P34972 whole entry): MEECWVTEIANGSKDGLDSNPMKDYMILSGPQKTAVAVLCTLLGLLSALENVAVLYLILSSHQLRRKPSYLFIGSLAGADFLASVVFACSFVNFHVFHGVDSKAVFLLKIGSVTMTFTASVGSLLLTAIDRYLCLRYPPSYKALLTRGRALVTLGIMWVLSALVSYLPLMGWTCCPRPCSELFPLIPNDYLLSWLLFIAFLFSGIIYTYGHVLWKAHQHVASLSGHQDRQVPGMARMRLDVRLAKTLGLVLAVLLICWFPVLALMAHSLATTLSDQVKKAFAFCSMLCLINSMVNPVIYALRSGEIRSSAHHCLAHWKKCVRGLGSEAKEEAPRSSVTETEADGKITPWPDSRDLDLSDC

[33] = biological target: Cannabinoid receptor 1 (Homo sapiens) (UniProt P21554); assay: Binding affinity to CB1 receptor
Cannabinoid receptor 1 (Homo sapiens), sequence (P21554 whole entry): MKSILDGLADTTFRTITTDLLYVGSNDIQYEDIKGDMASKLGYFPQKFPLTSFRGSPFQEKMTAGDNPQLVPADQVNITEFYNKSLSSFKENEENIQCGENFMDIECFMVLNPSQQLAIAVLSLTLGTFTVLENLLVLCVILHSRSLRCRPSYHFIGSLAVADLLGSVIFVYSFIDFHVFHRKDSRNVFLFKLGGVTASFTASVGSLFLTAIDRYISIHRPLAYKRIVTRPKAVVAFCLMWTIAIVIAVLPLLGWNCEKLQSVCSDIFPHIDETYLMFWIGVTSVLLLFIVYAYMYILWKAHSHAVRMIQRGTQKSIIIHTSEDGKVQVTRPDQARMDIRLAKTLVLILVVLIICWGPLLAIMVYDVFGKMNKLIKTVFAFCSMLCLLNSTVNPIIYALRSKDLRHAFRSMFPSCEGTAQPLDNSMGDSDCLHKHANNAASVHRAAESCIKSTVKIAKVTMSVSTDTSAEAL

Rattus norvegicus [34] = assay: Antinociceptive efficacy in spinal nerve ligated Sprague-Dawley rat assessed as reduction of neuropathic pain in left side paw at 100 umol/kg, ip administered 30 mins before testing relative to control; type: functional
Rattus norvegicus [35] = assay: Antinociceptive efficacy in ip dosed rat assessed as inhibition of carrageenan-induced inflammatory pain in paw after 30 mins by hotbox assay; type: functional; conditions: 0.5 h
[36] = biological target: Kappa-type opioid receptor (Homo sapiens) (UniProt P41145); assay: Binding affinity to kappa opioid receptor
Kappa-type opioid receptor (Homo sapiens), sequence (P41145 whole entry): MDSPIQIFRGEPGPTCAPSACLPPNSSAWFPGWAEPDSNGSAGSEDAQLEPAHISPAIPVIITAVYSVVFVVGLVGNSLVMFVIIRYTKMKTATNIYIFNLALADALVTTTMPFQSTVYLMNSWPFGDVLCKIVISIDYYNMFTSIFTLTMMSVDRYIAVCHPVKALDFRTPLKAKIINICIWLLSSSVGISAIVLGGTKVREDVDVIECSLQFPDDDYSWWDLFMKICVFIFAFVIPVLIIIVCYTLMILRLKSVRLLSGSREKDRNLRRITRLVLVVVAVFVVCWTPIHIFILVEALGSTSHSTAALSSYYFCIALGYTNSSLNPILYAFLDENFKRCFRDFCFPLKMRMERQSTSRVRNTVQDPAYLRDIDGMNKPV

[37] = biological target: Delta-type opioid receptor (Homo sapiens) (UniProt P41143); assay: Binding affinity to delta opioid receptor
Delta-type opioid receptor (Homo sapiens), sequence (P41143 whole entry): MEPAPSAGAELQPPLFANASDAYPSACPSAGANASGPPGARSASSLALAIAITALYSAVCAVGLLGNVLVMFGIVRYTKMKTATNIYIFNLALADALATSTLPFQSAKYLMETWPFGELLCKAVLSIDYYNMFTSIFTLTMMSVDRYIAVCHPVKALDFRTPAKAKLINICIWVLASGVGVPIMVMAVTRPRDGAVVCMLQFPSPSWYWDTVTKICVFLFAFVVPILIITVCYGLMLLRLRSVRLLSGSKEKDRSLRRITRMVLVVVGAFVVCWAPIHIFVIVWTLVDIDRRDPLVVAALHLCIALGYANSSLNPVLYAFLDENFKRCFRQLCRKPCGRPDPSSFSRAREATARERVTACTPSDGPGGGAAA

[38] = biological target: Mu-type opioid receptor (Homo sapiens) (UniProt P35372); assay: Binding affinity to mu opioid receptor
Mu-type opioid receptor (Homo sapiens), sequence (P35372 whole entry): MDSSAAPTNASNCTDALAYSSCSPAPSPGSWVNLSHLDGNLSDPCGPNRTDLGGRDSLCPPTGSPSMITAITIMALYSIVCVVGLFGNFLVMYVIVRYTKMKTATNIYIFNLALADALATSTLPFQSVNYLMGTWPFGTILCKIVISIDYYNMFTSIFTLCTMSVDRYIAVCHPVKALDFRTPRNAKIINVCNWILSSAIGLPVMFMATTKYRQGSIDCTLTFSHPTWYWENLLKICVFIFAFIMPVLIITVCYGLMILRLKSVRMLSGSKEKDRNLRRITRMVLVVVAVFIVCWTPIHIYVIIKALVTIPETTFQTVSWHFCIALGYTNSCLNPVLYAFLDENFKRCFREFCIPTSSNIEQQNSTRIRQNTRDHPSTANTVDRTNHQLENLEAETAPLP

Rattus norvegicus [39] = assay: Antinociceptive efficacy in rat assessed as inhibition of carrageenan-induced inflammatory pain in paw at 100 umol/kg, ip after 30 mins by hotbox assay relative to control; type: functional

Vd [1] [L/kg]	Vd [2] [L/kg]	Activity (Cytochrome P450 2D6)	clearance [6] [mL/min/kg]	bioavailability [7] [%]	half-life [8] [h]	fraction unbound [10]	bioavailability [12] [%]	EC50 (Histamine H4 receptor [13]) [nM]	Activity (Cytochrome P450 2C9)	Stability [14] [pmol/min/mg]	fraction unbound [15]	Ki (Histamine H4 receptor [16]) [nM]	Activity (Cytochrome P450 3A4)	Stability (Liver microsomes [20]) [pmol/min/mg]	pKb (Histamine H4 receptor [21])	Kp at 0.5 h [23]	SMILES	Activity (BMMC)	ED50 (Mus musculus [19]) [µmol/kg]	ED50 (Mus musculus [22]) [µmol/kg]	further results
88.9	19.9	Not Active	102	33	4.9	0.42	37	14.8	Not Active	14	0.56	7.59	Not Active	14.5	7.13	2.1	Nc1nc2c(c(N3CCNCC3)n1)CCCc1ccccc1-2	Active	21	> 72	clearance [3]: 378 mL/min/kg; Ratio Ki [4]: > 93; Ratio Ki [5]: > 130; Ratio Ki [9]: > 140; Ratio Ki [11]: 110; Ki (Histamine H4 receptor [17]): 71 nM; Ratio Ki [18]: 17; Ratio Ki (Homo sapiens): 52; Ratio Ki [24]: 13; EC50 (Histamine H4 receptor [25]): 18.2 nM; half-life [26]: 2.2 h; Ratio Ki [27]: > 185; Stability (Liver microsomes [28]): 95.4 pmol/min/mg
131	72.9	Not Active	323	90	1.6	0.45	34	10	Not Active	32.9	0.52	3.8	Not Active	13	8.24	2.2	Nc1nc2c(c(N3CC[C@@H](N)C3)n1)CCCc1ccccc1-2	Active	34	33	CL (Mus musculus [29]): 1190 mL/min/kg; Activity [30]: inactive; Activity [31]: inactive; Activity [32]: inactive; Activity [33]: inactive; Efficacy (Rattus norvegicus [34]): 47%; ED50 (Rattus norvegicus [35]): 72 µmol/kg; Activity [36]: inactive; Activity [37]: inactive; Activity [38]: inactive; Efficacy (Rattus norvegicus [39]): 68%; EC50 (Histamine H4 receptor [25]): 5.75 nM; half-life [26]: 2.6 h; Stability (Liver microsomes [28]): 19 pmol/min/mg
